Experimental findings from patent US11634378B2, “Compounds and methods targeting GPER in calcium disorders” (Saint Louis University, priority 2017, dated 2023) are described below.

Molecules are shown by their SMILES.

Assay [1] deals with T1, GPER (Homo sapiens, UniProt Q99527).
T1 construct: HL-60 cells (a human promyelocytic leukemia cell line) which endogenously expresses GPER; host or cells: HL-60
In words: Calcium mobilization antagonism assay in indo1-AM-loaded HL-60 cells (against EC80 of G-1). Particulars: Table 3; HL-60 cells endogenously expressing GPER; mean ± SD of three IC50 values from triplicates; read-out: IC50 (nM) of the inhibition of calcium mobilization. The format is cell-based. On the procedure:
Human Myelocytic Leukemia (HL-60) cells were grown in phenol red free media containing 10% […] fetal bovine serum (FBS), 1% Pen-Strep, and 1% Glutamax. Cells were grown to no more than 1×10^6 cells/mL to prevent differentiation before being split. Prior to assay cells were transferred to phenol red free media containing charcoal-stripped FBS. On the day of the assay cells were centrifuged down at 16.4 G for 5 minutes and washed with 50:1 HBSS/HEPES. Cells were resuspended at 1×10^7 cells/mL in 50:1 HBSS/HEPES. To the resuspended cells, 0.05% pluronic acid and 5 uM of fluorescent calcium indicator, Indo-1AM, were added. The dye solution was incubated for 0.5 hrs at room temperature with rocking. After 30 minutes cells were spun down, and resuspended in 50:1 HBSS/HEPES. Cells were placed on ice for at least 5 minutes and then resuspended in 8.5 mL of 50:1 HBSS/HEPES (containing probenacid) for agonism assays or 6.5 mL of 50:1 HBSS/HEPES (containing probenacid) for antagonism assays. For agonism assays 160 μL of cell suspension were added to a 96-well plate and were incubated at 37° for 10 minutes in a FlexStation® 3 plate reader (Molecular Devices). Inside the plate reader, 40 μL of agonist were added to each well and excited with 350 nm and read at emissions of 405 nm and 490 nm. For antagonist assays, 120 μL of cell suspension were added to a 96-well plate. In addition to the cell suspension 40 μL of antagonist were added to the wells. Cells with antagonists were incubated at 37° for 15 minutes in FlexStation® 3 plate reader (Molecular Devices). Inside the plate reader, 40 μL of agonist at the EC80 were added to each well and excited with 350 nm and read at emissions of 405 nm and 490 nm.
In vitro biological evaluation using calcium mobilization. HL-60 cells were grown in 10% charcoal-stripped RPMI 72 hours before assays were performed. Cells were centrifuged and counted with a hemocytometer from Hausser Scientific (Bedford, Mass.). The assay required 100,000 cells per well, for a total number of cells on a 96-well plate assay of about 1×10 (Matthews and Gustafsson, 2003). HL-60 cells (1×10 (Matthews and Gustafsson, 2003)) were incubated in 50:1 Hanks balanced salt solution (Millipore Sigma, Saint Louis, Mo. and HEPES (Gibco by Life Technologies, Gaithersburg, Md.) containing 5 μM indo1-AM (Thermo Fischer Scientific, Waltham, Mass.) and 0.05% pluronic acid (AAT Bioquest Inc., Sunnyvale, Calif.) for 0.5 h at RT. Cells were spun down and washed with 50:1 HBSS/HEPES, and resuspended in media. Resuspension was placed on ice for no longer than 5 mins. Cells were loaded into plate at 100,000 cells/well. For agonist cells were immediately incubated for 15 mins at 37° C. Following the 15 mins incubation FlexStation 3 Multimode Plate Reader (Molecular Devices, Sunnyvale, Calif.) added the appropriate amount of agonist and was read for 150 seconds at 37° C. For antagonists once the cells were seeded, antagonist was added and incubated for 15 mins at 37° C. After 15 mins of equilibration, the EC80 of G-1 was added by the FlexStation and read for 150 secs at 37° C. Calcium mobilization was determined ratiometrically using λex 350 nm and λem 405/490 nm.
On the technique in general: Calcium assays in cells follow changes in intracellular calcium, usually with a dye or a luminescent sensor.

Assay [2] concerns the target T1, GPER. Description: cAMP HTRF antagonism assay (G-1 induced inhibition of adenylate cyclase) in HL-60 cells. The format is cell-based. On the procedure: In vitro cAMP biological evaluation. A homogeneous time resolved fluorescence (HTRF®) components for cAMP was purchased by CisBio (Bedford, Mass.). HL-60 cells were grown in 10% charcoal-stripped RPMI media for 72 hours prior to assays. Cells were centrifuged and counted with a hemocytometer from Hausser Scientific (Horsham, Pa.). The total number of cells needed to complete the assay was determined based upon 8,000 cells/well. The determined number of cells was diluted in 5:1 (5×) stimulation buffer contain 500 μM of 3-isobutyl-1-methylxanthine (IBMX) (Sigma Aldrich, Saint Louis, Mo.). To an HTRF 96-well low volume white plate from CisBio, 5 μL of cold cell suspension was added to each plate, followed by 4 μL of (2.5×) of agonist or stimulation buffer (negative control and non-stimulated cells). Cells were covered with a clear plastic film and incubated at 37° C. for 15 mins in an incubator. After 15 mins cell 1 μL of 10 μM (10×) forskolin was added to each well. The plate was once again sealed and incubated at 37° C. for 15 mins. After 15 mins 5 μL of cAMP-d2 (acceptor) was added to all wells, including controls. Conversely, 5 μL of monoclonal anti-cAMP Eu3^+ cryptate (donor) was added to only the wells with test compound and non-stimulated cells. Following addition, the plate was sealed, covered with aluminum foil, and incubated at room temperature for 30 mins. After the allotted time cells were read using Flexstation3 and with λex 314 nm and λem 665 nm. For an antagonism platform the procedure was slightly altered. The EC80 of G-1 was recalculated based upon cAMP agonism results. To the plate, 2 μL of (5×) antagonist were added dose wise followed by the addition of 5 μL of cold cell suspension to all wells (top and bottom well were designated as G-1 control and forskolin control, respectively). Cells and antagonists were incubated for 15 mins at 37° C. After 15 mins, 2 μL of the (5×) EC80 of G-1 was added to wells with antagonist. […] Cells were allowed to equilibrate at room temperature for 30 minutes before being read at λex 314 nm and λem 665 nm.
(In general: In TR-FRET formats the signal depends on donor and acceptor labels being close together.)

Assay [3] concerns the target T2, ERα (Homo sapiens, UniProt P03372).
T2 construct: purchased Invitrogen (Carlsbad, Calif.)
T2 sequence (P03372 1-595): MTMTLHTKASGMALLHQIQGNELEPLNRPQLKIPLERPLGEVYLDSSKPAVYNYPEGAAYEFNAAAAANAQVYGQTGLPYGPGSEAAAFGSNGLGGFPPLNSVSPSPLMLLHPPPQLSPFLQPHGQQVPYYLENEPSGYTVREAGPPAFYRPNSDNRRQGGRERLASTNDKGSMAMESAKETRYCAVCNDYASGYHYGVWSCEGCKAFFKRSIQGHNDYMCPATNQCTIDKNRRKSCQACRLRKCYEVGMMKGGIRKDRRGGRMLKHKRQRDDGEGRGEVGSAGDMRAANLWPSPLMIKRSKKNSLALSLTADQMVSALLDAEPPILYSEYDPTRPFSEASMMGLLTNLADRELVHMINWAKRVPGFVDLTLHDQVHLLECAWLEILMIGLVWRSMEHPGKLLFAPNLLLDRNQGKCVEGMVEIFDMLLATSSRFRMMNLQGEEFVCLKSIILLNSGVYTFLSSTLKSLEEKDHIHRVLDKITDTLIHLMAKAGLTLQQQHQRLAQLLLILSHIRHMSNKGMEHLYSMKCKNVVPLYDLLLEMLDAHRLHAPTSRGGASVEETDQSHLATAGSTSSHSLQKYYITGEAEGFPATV
Description: ERα PolarScreen fluorescence polarization competitor assay. It is filed as binding. On the procedure: (§1) ERα and ERβ Fluorescence Polarization Assay. The ERα and ERβ PolarScreen™ Competitor Assays by Invitrogen (Carlsbad, Calif.) were purchased. The concentrations of the ERα and ERβ enzyme varied between the two assays. A 4× sample of ERα was prepared for a final concentration of 75 nM. Conversely, a 4× sample of ERβ was prepared for a final concentration of 23 nM within the assay. For both ERα and ERβ a 4× aliquot of Fluoromone was prepared for a final assay concentration of 4.5 nM. Despite the differences in concentration of ERα and ERβ, the binding assay protocol for the two different enzymes remained the same. Drug dilutions were prepared for a 2× dilution in the ER specific buffer that was provided within the assay kit. In addition to the drug dilutions a 2× aliquot of Fluoromone was prepared by adding 10 μL of 4× with 10 μL of ER specific buffer. A 2× dilution of enzyme and fluorophore was achieved by adding equal portions of each to each other. To a black 384-plate well plate, 10 μL of compound were added to the wells followed by 10 μL of the 2× mixture of enzyme and fluoromone. Two controls were included in the plate design. In one control, enzyme and compound were omitted so that only ER specific buffer and fluoromone remained. A separate control contained the enzyme and fluoromone control. […] The plate was incubated at RT for 2 hours before being read with λex 485 nm and λem 535 nm.
In general terms: Fluorescence polarisation rises when a labelled molecule tumbles more slowly, as on binding a larger partner.

Assay [4] addresses T3, ERβ (Homo sapiens, UniProt Q92731).
T3 construct: purchased Invitrogen (Carlsbad, Calif.)
Description: ERβ PolarScreen fluorescence polarization competitor assay. It is filed as binding. Particulars: below 10 μM. On the procedure:
as §1

T1 sequence (Q99527 whole entry): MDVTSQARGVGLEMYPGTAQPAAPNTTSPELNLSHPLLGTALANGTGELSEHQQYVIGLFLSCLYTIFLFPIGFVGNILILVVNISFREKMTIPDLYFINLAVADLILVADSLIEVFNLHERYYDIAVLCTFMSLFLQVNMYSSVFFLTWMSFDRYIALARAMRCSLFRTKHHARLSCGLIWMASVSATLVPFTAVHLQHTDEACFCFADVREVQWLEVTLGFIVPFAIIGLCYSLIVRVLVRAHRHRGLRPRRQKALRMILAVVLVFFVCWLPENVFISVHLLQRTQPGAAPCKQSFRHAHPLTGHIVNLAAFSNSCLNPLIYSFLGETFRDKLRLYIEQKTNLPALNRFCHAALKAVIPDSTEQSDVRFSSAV
T3 sequence (Q92731 whole entry): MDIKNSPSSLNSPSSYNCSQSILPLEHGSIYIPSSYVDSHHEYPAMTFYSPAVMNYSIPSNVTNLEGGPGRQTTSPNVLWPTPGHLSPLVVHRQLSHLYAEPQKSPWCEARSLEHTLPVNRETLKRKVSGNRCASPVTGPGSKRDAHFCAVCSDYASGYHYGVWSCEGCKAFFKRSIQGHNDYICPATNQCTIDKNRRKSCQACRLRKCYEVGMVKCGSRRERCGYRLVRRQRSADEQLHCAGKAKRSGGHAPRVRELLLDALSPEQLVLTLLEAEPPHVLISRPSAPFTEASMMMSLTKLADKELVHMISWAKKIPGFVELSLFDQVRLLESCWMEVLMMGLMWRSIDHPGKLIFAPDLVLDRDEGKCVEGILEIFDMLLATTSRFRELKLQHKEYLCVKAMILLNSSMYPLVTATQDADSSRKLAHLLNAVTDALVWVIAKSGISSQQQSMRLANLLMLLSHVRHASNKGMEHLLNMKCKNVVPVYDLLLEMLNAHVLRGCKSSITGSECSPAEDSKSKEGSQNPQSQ

One may read the IC50 as the concentration needed to halve the response being measured. For the compound `Cc1ccc(CNc2ccc(C(C)(C)C)cc2C2CCCCC2)cc1` [Compound 21], in assay [1], the IC50 is 60.8 ± 18 nM. Also, the “Antagonism of G-1 induced inhibition of adenylate cyclase” value was “also observed, less so” in assay [2] (100 nM) and “caused a decrease in adenylate cyclase inhibition” in assay [2] (1 μM exposure). For the same compound, the “Reduction of G-1 induced inhibition of cAMP formation / adenylate cyclase” value in assay [2] (EC80 of G-1, 1 μM forskolin, concentration not given) was “able to decrease inhibition of adenylate cyclase”. The ERα binding entry in assay [3] (10 μM (highest concentration)) is “a low level of binding”; in assay [3] (below 10 μM), “do not exhibit binding”. Moreover, the ERβ binding result in assay [4] is listed as “do not exhibit binding”.

As for `CC(C)c1ccc(NCc2ccc3ccccc3c2)c(C2CCCCC2)c1` [Compound 5], the IC50 in assay [1] worked out at 260 ± 110 nM.

Consider `CC(C)(C)c1ccc(NCc2ccc(-c3ccccc3)cc2)c(C2CCCCC2)c1` [Compound 20], for which, in assay [1], the IC50 was 132 ± 145 nM.

As for `CC(C)(C)c1ccc(NCc2ccccc2)c(C2CCCCC2)c1` [Compound 23], the IC50 in assay [1] was found to be 331 ± 160 nM.

Regarding `CC(C)(C)c1ccc(NCc2ccc(Cl)cc2)c(C2CCCCC2)c1` [Compound 24], in assay [1], the IC50 was 141 ± 14 nM.

For `COc1ccc(CNc2ccc(C(C)(C)C)cc2C2CCCCC2)cc1` [Compound 22], in assay [1], the IC50 turned out to be 874 ± 49 nM.

Turning to `CC(C)(C)c1ccc(NCc2ccc(Cl)c(Cl)c2)c(C2CCCCC2)c1` [Compound 25], the IC50 in assay [1] was 657 ± 94 nM.
